The test system of one data set is brain metastases. Description: MRI signal enhancement in brain metastases (Nano-Rad phase I-b trial, 3 Tesla, 3D T1-weighted). Format: in vivo, human. The following applies: D0, 15 min after injection, 0.1 mmol/kg i.v., metastases >1 cm. An excerpt: This study is part of a prospective dose escalation phase I-b clinical trial to evaluate the tolerance of the intravenous administration of radiosensitizing AGuIX nanoparticles in combination with whole brain radiotherapy for the treatment of brain metastases. The Nano-Rad trial (Radiosensitization of Multiple Brain Metastases Using AGuIX Gadolinium Based Nanoparticles) was registered as NCT02820454. Here, we report the findings of the MRI protocol applied to the 15 recruited patients. […]
MRI analyses were performed using an in-house computer program called MP3 (https://github.com/nifm-gin/MP3) developed by the GIN Laboratory (Grenoble, France) and running under Matlab® software. Image analyses include counting and measurements of metastases, quantification of contrast enhancement, relaxation times and concentration of nanoparticles. […] The MRI enhancement, expressed in percentage, was defined as the ratio of the MRI signal amplitude post contrast agent administration over the MRI signal amplitude pre contrast agent administration; the MRI signal amplitude being measured in the 3D T1-weighted image dataset. […]

For data set [1] the following is noted: magnetic field of 3 Tesla, literature reference; cited from earlier work.
The nature of data set [2]: Detection of solutions in Eppendorf by MRIdian MR-linac at 0.35 T. The following applies: spin echo, solutions in PPI water. As for the experimental part: ViewRay Linac MRI displaying magnetic field of 0.35 T (MRIdian MR-linac, ViewRay Inc., Oakwood, USA) (S. Klüter, Clinical and Translational Radiation Oncology, 2019), samples with different concentrations in gadolinium were tested and compared to Multihance (Bracco) using the Torso coil (two surface flexible 6-channel coils array).
The ViewRay MRIdian system is clinically used for external radiotherapy purpose, thus it is a very appropriate device dedicated to the use of the AGuIX. A 2D coronal spin echo sequence was used: TR=400 ms, TE=20 ms, Flip Angle=90°, Bandwidth=57. Hz/Px, Matrix=512×512, Slice Thickness=3 mm, Field Of View=350×350×263 mm, Number of Averages=5. The total acquisition time was 12:30 minutes.
Solutions of multihance and AGuIX were prepared by dilution in PPI water from stock solutions of 0.5 mol·L^−1 and 100 g·L^−1 respectively 1 hour before imaging and placed in Eppendorf.

Consider `CNC[C@H](O)[C@@H](O)[C@H](O)[C@H](O)CO.O=C([O-])CN1CCN(CC(=O)[O-])CCN(CC(=O)O)CCN(CC(=O)[O-])CC1.[Gd+3]` [Dotarem, gadoterate meglumine], for which the “MRI enhancement averaged over all measurable metastases” value in the data set with brain metastases turned out to be 182.9±116.2%. In data set [1], the “r1 per Gd^3+ ion” value was 3.5 mM⁻¹ s⁻¹.

Take `O=C([O-])CN(CCN(CC(=O)[O-])CC(=O)[O-])CCN(CC(=O)[O-])C(COCc1ccccc1)C(=O)[O-].[Gd+3].[H+].[H+]` (stereo not drawn) [Multihance, gadobenic acid]: the “Detection sensitivity (lowest detected [Gd^3+])” value in data set [2] is 25 µM.
